Data published in patent publication US9452225B2, “GLP-1 prodrugs” (Novo Nordisk A/S, priority 2012, dated 2016).

Tests used:
human GLP-1 receptor = target: T1, human GLP-1 receptor (Homo sapiens, UniProt P43220); test: In vitro potency, AlphaScreen cAMP assay on membranes; format: biochemical; conditions: cAMP formation, membranes of BHK467-12A cells
T1 construct: expressed in transfected cells; host or cells: BHK cells, clone FCW467-12A (parent line BHKTS13), membranes
Protocol: The purpose of this example is to test the activity, or potency, in vitro of, for example, the GLP-1 parent drugs of the prodrugs of the invention.
Purified plasma membranes from a stable transfected cell line, BHK467-12A (tk-ts13), expressing the human GLP-1 receptor were stimulated with the GLP-1 drug in question, and the potency of cAMP production was measured using the AlphaScreen™ cAMP Assay Kit from Perkin Elmer Life Sciences. The basic principle of The AlphaScreen Assay is a competition between endogenous cAMP and exogenously added biotin-cAMP. The capture of cAMP is achieved by using a specific antibody conjugated to acceptor beads.
A stable transfected cell line and a high expressing clone were selected for screening. The cells were grown at 5% CO2 in DMEM, 10% FCS, 1% Pen/Strep (Penicillin/Streptomycin) and preferably 0.5 (alternatively 1.0 mg/ml) of the selection marker G418.
Cells at approximate 80% confluence were washed twice with PBS and harvested with Versene (aqueous solution of the tetrasodium salt of ethylenediaminetetraacetic acid), centrifuged 5 min at 1000 rpm and the supernatant removed. The additional steps were all made on ice. The cell pellet was homogenised by the Ultrathurax for 20-30 s in 10 ml of Buffer 1 (20 mM Na-HEPES, 10 mM EDTA, pH=7.4), centrifuged 15 min at 20,000 rpm and the pellet resuspended in 10 ml of Buffer 2 (20 mM Na-HEPES, 0.1 mM EDTA, pH=7.4). The suspension was homogenised for 20-30 s and centrifuged 15 min at 20,000 rpm. Suspension in Buffer 2, homogenisation and centrifugation was repeated once and the membranes were resuspended in Buffer 2. The protein concentration was determined and the membranes stored at −80° C. until use.
The assay was performed in flat-bottom 96-well plates (Costar cat. no: 3693). The final volume per well was 50 μl.
AlphaScreen cAMP Assay Kit from Perkin Elmer Life Sciences (cat. No: 6760625M); containing Anti-cAMP Acceptor beads (10 U/μl), Streptavidin Donor beads (10 U/μl) and Biotinylated-cAMP (133 U/μl). […]

[1] = Pharmacokinetic study in minipigs after i.v. administration; format: in vivo, Göttingen minipigs; conditions: female, Göttingen, plasma, iv; minipig, parent drug given i.v. 3 nmol/kg; read-out: Terminal half-life (harmonic mean/h) (converted)
Protocol: The purpose of this study is to determine the pharmacokinetic (PK) profile in vivo of a prodrug of the invention (Example 4) and the corresponding parent drug (Example B2.2) after i.v. administration to minipigs, e.g. the prolongation of their time in the body and thereby their time of action. This is done in a PK study, where the terminal half-life of the compound in question is determined. By terminal half-life is generally meant the period of time it takes to halve a certain plasma concentration, measured after the initial distribution phase.
Threefemale Göttingen minipigs, obtained from Ellegaard Göttingen Minipigs (Dalmose, Denmark) approximately 6-8 months of age and weighing approximately 16-21 kg (prodrug pig 16.8 kg, drug pigs 21.3 and 21.1 kg), were used in the studies. The minipigs were housed individually and fed restrictedly once daily with SDS minipig diet (Special Diets Services, Essex, UK). […]
The prodrug of Example 4 and the corresponding drug of Example B2.2 were dissolved in 50 mM sodium phosphate, 145 mM sodium chloride, 0.05% polysorbate 80, pH 7.4 to a suitable concentration (for example, 169.6 nmol/ml for the prodrug). […] Individual plasma concentration-time profiles were analyzed by a non-compartmental model in WinNonlin v. […] Also, the resulting terminal half-lives (harmonic mean/h) were determined, if possible. […]

T1 sequence (P43220 24-463): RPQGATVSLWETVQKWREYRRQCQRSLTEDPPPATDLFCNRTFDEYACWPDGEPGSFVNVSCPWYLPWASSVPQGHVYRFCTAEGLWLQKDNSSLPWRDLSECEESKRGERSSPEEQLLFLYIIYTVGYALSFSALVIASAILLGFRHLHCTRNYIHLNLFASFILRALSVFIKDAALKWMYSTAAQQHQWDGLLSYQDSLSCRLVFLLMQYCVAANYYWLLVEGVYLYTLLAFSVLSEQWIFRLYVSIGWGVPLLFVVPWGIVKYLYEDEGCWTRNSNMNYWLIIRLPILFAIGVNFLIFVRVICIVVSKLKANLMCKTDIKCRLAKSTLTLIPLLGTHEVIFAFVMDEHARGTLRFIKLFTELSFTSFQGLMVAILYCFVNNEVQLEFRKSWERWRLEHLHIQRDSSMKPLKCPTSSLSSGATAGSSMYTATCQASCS

SMILES: CC[C@H](C)[C@H](NC(=O)[C@H](Cc1ccccc1)NC(=O)[C@H](CCC(=O)O)NC(=O)[C@H](CCCCNC(=O)COCCOCCNC(=O)COCCOCCNC(=O)CC[C@H](NC(=O)CCCCCCCCCOc1ccc(C(=O)O)cc1)C(=O)O)NC(=O)[C@H](C)NC(=O)[C@H](C)NC(=O)[C@H](CCC(N)=O)NC(=O)CNC(=O)[C@H](CCC(=O)O)NC(=O)[C@H](CC(C)C)NC(=O)[C@H](Cc1ccc(O)cc1)NC(=O)[C@H](CO)NC(=O)[C@H](CO)NC(=O)[C@@H](NC(=O)[C@H](CC(=O)O)NC(=O)[C@H](CO)NC(=O)[C@@H](NC(=O)[C@H](Cc1ccccc1)NC(=O)[C@@H](NC(=O)CNC(=O)[C@H](CCC(=O)O)NC(=O)[C@H](C)NC(=O)[C@@H](O)Cc1c[nH]cn1)[C@@H](C)O)[C@@H](C)O)C(C)C)C(=O)N[C@@H](C)C(=O)N[C@@H](Cc1c[nH]c2ccccc12)C(=O)N[C@@H](CC(C)C)C(=O)N[C@H](C(=O)N[C@@H](CCCNC(=N)N)C(=O)NCC(=O)N[C@@H](CCCNC(=N)N)C(=O)N[C@@H](CCCCNC(=O)COCCOCCNC(=O)COCCOCCNC(=O)CC[C@H](NC(=O)CCCCCCCCCOc1ccc(C(=O)O)cc1)C(=O)O)C(=O)O)C(C)C [Example B2.2]
- EC50 (human GLP-1 receptor): 460 pM
- half-life [1]: 37 h
